The results in this text go back to ChEMBL document CHEMBL3132769, “Fragment growing to retain or alter the selectivity of anchored kinase hinge-binding fragments” (Medchemcomm, 2014).

Molecules are shown by their SMILES.

Test [1] has as its target Casein kinase I isoform delta (Homo sapiens) (UniProt P48730). The experiment in a line: Inhibition of human CK1D catalytic domain expressed in Escherichia coli cell assessed as substrate phosphorylation using fluorescence-labelled peptides as substrate at 8 uM after 90 mins by microfluidic peptide phosphorylation assay.
The target of test [2] is T1, Serine/threonine-protein kinase BRSK1 (Homo sapiens) (UniProt Q8TDC3).
T1 sequence (whole entry): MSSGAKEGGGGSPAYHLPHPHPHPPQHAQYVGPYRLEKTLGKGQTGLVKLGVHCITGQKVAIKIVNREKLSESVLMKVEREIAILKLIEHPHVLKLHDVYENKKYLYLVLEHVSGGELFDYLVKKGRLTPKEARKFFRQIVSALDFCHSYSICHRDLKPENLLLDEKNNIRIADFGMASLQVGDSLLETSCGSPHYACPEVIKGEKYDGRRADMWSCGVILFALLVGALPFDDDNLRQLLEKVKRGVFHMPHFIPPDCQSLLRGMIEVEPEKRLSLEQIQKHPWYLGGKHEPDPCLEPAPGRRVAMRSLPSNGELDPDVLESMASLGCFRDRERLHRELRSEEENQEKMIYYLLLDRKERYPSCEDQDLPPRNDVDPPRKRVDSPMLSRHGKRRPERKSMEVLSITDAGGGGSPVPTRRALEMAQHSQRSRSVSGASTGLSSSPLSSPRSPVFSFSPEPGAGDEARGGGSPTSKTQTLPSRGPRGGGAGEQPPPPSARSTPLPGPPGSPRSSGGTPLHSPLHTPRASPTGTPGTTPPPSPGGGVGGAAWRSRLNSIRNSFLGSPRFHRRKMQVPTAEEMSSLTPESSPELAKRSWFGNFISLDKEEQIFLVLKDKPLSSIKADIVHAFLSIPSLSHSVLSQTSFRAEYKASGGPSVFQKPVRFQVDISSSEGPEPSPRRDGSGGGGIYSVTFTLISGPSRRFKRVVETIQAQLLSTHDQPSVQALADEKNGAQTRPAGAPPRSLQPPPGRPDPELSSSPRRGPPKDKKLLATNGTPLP
Kind of test: Inhibition of human full length BRSK1 expressed in baculovirus assessed as substrate phosphorylation using fluorescence-labelled peptides as substrate at 0.1 uM after 90 mins by microfluidic peptide phosphorylation assay.

Test [3] deals with T2, cGMP-dependent protein kinase 1 (Homo sapiens) (UniProt Q13976).
T2 sequence (whole entry): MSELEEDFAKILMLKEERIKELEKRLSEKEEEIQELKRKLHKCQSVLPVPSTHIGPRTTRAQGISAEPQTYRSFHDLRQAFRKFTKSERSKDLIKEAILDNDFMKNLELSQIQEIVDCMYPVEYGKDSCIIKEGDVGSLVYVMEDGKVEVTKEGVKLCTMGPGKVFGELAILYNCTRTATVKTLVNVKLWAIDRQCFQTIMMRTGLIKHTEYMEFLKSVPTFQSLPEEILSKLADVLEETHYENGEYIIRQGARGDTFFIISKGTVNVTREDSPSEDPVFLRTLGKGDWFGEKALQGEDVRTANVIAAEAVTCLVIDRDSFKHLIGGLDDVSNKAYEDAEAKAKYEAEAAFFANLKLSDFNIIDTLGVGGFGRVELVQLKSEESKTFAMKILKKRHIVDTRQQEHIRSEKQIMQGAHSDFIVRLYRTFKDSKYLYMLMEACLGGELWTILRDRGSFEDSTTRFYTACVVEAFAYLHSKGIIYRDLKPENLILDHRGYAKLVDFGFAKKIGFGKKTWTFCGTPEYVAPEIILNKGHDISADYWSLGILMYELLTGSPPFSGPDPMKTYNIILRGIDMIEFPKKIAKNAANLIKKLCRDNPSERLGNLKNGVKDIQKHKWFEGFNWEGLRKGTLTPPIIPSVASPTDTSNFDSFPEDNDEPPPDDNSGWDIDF
The following applies: 0.1 uM.
Description: Inhibition of human full length PKG-1beta expressed in baculovirus assessed as substrate phosphorylation using fluorescence-labelled peptides as substrate at 0.1 uM after 90 mins by microfluidic peptide phosphorylation assay

The target in test [4] is T3, Testis-specific serine/threonine-protein kinase 2 (Homo sapiens) (UniProt Q96PF2).
T3 sequence (whole entry): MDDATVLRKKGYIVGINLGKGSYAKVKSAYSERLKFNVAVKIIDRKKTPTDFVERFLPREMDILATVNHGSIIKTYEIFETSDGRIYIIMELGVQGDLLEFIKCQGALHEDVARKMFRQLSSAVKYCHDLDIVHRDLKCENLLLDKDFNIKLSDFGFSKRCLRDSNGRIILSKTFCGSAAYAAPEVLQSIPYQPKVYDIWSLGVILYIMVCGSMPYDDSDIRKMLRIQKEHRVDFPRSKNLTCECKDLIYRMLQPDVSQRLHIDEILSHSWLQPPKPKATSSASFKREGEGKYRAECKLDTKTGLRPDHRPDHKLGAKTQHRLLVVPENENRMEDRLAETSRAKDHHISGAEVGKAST
As to conditions: 0.1 uM.
Description: Inhibition of human full length TSSK2 expressed in baculovirus assessed as substrate phosphorylation using fluorescence-labelled peptides as substrate at 0.1 uM after 90 mins by microfluidic peptide phosphorylation assay

In test [5] the target is Insulin receptor (Homo sapiens) (UniProt P06213). Kind of test: Inhibition of human INSR catalytic domain expressed in baculovirus assessed as substrate phosphorylation using fluorescence-labelled peptides as substrate at 9 uM after 90 mins by microfluidic peptide phosphorylation assay.
For test [6], the target named is T4, Calcium/calmodulin-dependent protein kinase type IV (Homo sapiens) (UniProt Q16566).
T4 sequence (whole entry): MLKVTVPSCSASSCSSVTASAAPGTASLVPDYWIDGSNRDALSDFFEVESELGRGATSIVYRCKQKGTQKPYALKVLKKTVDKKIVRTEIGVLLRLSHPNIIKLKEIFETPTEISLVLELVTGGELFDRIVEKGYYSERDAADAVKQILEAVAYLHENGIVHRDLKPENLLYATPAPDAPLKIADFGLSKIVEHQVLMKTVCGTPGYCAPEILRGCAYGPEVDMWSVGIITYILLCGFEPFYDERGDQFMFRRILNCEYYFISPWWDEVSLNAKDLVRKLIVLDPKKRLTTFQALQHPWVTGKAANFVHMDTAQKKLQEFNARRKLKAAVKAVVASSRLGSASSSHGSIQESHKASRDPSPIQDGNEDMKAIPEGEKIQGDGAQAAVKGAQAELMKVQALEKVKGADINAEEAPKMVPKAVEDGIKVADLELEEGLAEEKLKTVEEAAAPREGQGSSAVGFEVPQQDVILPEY
Kind of test: Inhibition of human full length CAMK4 expressed in baculovirus assessed as substrate phosphorylation using fluorescence-labelled peptides as substrate at 70 uM after 90 mins by microfluidic peptide phosphorylation assay.

The target of test [7] is T3, Testis-specific serine/threonine-protein kinase 2 (Homo sapiens). The experiment in a line: Inhibition of human full length TSSK2 expressed in baculovirus assessed as substrate phosphorylation using fluorescence-labelled peptides as substrate at 70 uM after 90 mins by microfluidic peptide phosphorylation assay.
Test [8] addresses T2, cGMP-dependent protein kinase 1 (Homo sapiens). Kind of test: Inhibition of human full length PKG-1beta expressed in baculovirus assessed as substrate phosphorylation using fluorescence-labelled peptides as substrate at 2 uM after 90 mins by microfluidic peptide phosphorylation assay.
Test [9] has as its target Casein kinase I isoform alpha (Homo sapiens) (UniProt P48729). Kind of test: Inhibition of human full length CSNK1A1 expressed in baculovirus assessed as substrate phosphorylation using fluorescence-labelled peptides as substrate at 95 uM after 90 mins by microfluidic peptide phosphorylation assay.

For orientation: inhibition means the percentage by which the read-out fell short of the control.

Sequence of Casein kinase I isoform alpha (Homo sapiens) (P48729 2-337 limits assumed): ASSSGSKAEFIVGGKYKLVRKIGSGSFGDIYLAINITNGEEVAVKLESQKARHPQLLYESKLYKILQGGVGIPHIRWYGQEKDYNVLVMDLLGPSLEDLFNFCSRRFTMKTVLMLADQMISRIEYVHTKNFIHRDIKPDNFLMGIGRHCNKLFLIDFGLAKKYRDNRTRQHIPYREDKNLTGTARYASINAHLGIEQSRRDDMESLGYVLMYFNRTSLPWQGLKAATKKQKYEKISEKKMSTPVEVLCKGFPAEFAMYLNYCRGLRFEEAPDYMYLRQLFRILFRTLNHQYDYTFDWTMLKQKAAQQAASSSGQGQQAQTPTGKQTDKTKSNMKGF
Sequence of Casein kinase I isoform delta (Homo sapiens) (P48730 whole entry, looked up, the tested form may be a part, canonical isoform): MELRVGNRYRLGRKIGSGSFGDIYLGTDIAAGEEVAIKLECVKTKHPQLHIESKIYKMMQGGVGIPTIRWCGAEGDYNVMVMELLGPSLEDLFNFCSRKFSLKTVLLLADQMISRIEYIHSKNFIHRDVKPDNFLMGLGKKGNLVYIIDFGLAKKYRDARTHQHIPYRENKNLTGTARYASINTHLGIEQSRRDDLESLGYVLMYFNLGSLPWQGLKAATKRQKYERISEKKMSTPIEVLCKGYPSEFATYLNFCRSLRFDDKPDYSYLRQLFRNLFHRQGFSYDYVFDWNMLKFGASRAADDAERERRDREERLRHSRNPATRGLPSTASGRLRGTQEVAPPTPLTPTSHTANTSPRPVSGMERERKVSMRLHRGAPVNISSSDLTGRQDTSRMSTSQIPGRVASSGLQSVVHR

For the molecule `NCC1CCN(c2ncnc3[nH]ccc23)CC1`, in test [1], the inhibition was 25.5%.
Regarding `C[C@H](CN(C)C)Oc1nc(Nc2cc3cccc(Cl)c3cn2)cnc1C#N`, the inhibition in [2] is 16.5%; in [3], 0%; in test [4], 0%.
`NCC1CN(c2ncnc3[nH]c4cnccc4c23)CCO1` (centres undefined): the inhibition in test [5] was 2.5%.
On to `CNCc1ccc(-c2ncnc3[nH]cnc23)cc1`, for which the inhibition stood at 77.5% in test [6] and 10% in test [7].
As to `NC1CCN(c2ncnc3[nH]ccc23)CC1`, in test [8], the inhibition came out at 8.5%.
Consider `NCCc1ccc(-c2ncnc3[nH]cnc23)cc1`, for which the inhibition in test [9] was determined as 53.5%.
